Measurements taken from patent US11566007B2, “Ras inhibitors” (Revolution Medicines, Inc., priority 2019, dated 2023).

Key:
NCI-H358 (K-Ras G12C) = assay: CellTiter-Glo cell viability assay, NCI-H358; format: cell-based, human; settings: Homo sapiens, NCI-H358, 120 h, NCI-H358, 5-day treatment; class symbols; read-out: Additional H358 Cell Viability assay data (K-Ras G12C, IC50)
Method in brief: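 Viability measured by CellTiter-Glo luminescence on day 5 following direct addition of compound to plated cells. Values expressed as percent of mean DMSO signal; curves fitted with a four-parameter logistic model.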

K-Ras G13C = K-Ras G13C (Homo sapiens (Human), UniProt P01116+P62937, G13C); assay: Ras-Raf (BRAF RBD) disruption / FRET / MOA assay, KRAS G13C; format: biochemical; settings: KRAS G13C; Ras-Raf disruption/FRET/MOA assay; read-out: IC50* KRAS G13C FRET data
Method in brief: (§1)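 Ternary complex formation (Ras–compound–cyclophilin A) displacing BRAF RBD, monitored by TR-FRET. Three hours at 25° C with compound (top 30 μM final), then 1.5 h with the labelled antibodies. Lower ratio than DMSO indicates disruption; IC50 reported.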

KRAS G12S = KRAS G12S (Homo sapiens (Human), UniProt P01116+P62937, G12S); assay: Ras-Raf (BRAF RBD) disruption / FRET / MOA assay, KRAS G12S; format: biochemical; settings: Ras-Raf disruption/FRET/MOA assay; class symbols; read-out: KRAS G12S FRET data IC50
Method in brief: as §1

KRAS WT = KRAS WT (Homo sapiens (Human), UniProt P01116+P62937); assay: Ras-Raf (BRAF RBD) disruption / FRET / MOA assay, KRAS WT; format: biochemical; settings: read-out: IC50* KRAS WT FRET data
Method in brief: as §1

KRAS Q61H = KRAS Q61H (Homo sapiens (Human), UniProt P01116+P62937, Q61H); assay: Ras-Raf (BRAF RBD) disruption / FRET / MOA assay, KRAS Q61H; format: biochemical; settings: Ras-Raf disruption/FRET/MOA assay; class symbols; read-out: KRAS Q61H FRET data IC50
Method in brief: (§2)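 Compounds were tested as a 10-point 3-fold dilution series from 30 μM final for their ability to drive ternary complex formation between nucleotide-loaded Ras and cyclophilin A, displacing the BRAF RBD. After 3 h at 25° C., anti-His Eu-W1024 (10 nM) and anti-GST allophycocyanin (50 nM) were added for 1.5 h. A TR-FRET ratio decrease versus DMSO gave IC50.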

NRAS Q61R = NRAS Q61R (Homo sapiens (Human), UniProt P01111+P62937, Q61R); assay: Ras-Raf (BRAF RBD) disruption / FRET / MOA assay, NRAS Q61R; format: biochemical; settings: NRAS Q61R; Ras-Raf disruption/FRET/MOA assay; read-out: IC50* NRAS Q61R FRET data
Method in brief: as §2

NRAS Q61K = NRAS Q61K (Homo sapiens (Human), UniProt P01111+P62937, Q61K); assay: Ras-Raf (BRAF RBD) disruption / FRET / MOA assay, NRAS Q61K; format: biochemical; settings: NRAS Q61K; Ras-Raf disruption/FRET/MOA assay; read-out: IC50* NRAS Q61K FRET data
Method in brief: as §2

KRAS G12S, sequence (P01116-2 other isoform, or with tags, fused parts or gaps G12S): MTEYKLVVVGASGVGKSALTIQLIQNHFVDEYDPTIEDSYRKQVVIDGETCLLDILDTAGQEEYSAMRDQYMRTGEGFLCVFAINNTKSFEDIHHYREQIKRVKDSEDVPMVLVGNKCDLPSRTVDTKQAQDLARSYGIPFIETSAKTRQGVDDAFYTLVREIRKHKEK
KRAS G12S, sequence (P62937 whole entry): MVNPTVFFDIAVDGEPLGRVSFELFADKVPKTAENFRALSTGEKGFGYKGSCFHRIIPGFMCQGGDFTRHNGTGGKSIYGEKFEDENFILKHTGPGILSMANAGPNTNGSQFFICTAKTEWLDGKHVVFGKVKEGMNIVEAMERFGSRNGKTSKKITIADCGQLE
NRAS Q61K, sequence (P01111 whole entry Q61K): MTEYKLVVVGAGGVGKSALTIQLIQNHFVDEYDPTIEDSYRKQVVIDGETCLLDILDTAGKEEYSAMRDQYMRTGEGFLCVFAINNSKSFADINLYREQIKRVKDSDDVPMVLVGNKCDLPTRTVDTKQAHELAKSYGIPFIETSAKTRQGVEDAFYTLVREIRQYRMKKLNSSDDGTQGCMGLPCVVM
NRAS Q61K, sequence (P62937 whole entry): as the sequence (P62937 whole entry) above
K-Ras G13C, sequence (P01116-2 other isoform, or with tags, fused parts or gaps G13C): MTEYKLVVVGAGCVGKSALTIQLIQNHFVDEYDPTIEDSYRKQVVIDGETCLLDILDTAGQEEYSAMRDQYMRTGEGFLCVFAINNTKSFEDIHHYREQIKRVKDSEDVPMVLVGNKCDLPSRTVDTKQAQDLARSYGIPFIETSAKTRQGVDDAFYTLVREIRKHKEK
K-Ras G13C, sequence (P62937 whole entry): as the sequence (P62937 whole entry) above
KRAS Q61H, sequence (P01116-2 other isoform, or with tags, fused parts or gaps Q61H): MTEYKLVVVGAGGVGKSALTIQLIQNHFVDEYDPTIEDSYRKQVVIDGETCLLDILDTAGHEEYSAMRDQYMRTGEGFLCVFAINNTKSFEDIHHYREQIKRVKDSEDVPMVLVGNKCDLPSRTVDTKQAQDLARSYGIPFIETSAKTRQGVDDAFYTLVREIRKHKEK
KRAS Q61H, sequence (P62937 whole entry): as the sequence (P62937 whole entry) above
KRAS WT, sequence (P01116-2 other isoform, or with tags, fused parts or gaps): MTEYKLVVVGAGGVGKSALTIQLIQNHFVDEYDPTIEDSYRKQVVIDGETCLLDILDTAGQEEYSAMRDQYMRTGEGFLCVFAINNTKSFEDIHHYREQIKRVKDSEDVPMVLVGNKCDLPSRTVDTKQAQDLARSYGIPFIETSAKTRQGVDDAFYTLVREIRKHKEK
KRAS WT, sequence (P62937 whole entry): as the sequence (P62937 whole entry) above
NRAS Q61R, sequence (P01111 whole entry Q61R): as the sequence (P01111 whole entry Q61K) above, with K61R counted along it
NRAS Q61R, sequence (P62937 whole entry): as the sequence (P62937 whole entry) above

Compound | IC50 (NCI-H358 (K-Ras G12C)) | IC50 (K-Ras G13C) | IC50 (KRAS G12S) | IC50 (KRAS WT) | IC50 (KRAS Q61H) | IC50 (NRAS Q61R) | IC50 (NRAS Q61K)
C=CC(=O)N1C[C@H](C)N(C(=O)N(C)[C@H](C(=O)N[C@H]2Cc3nc(cs3)-c3ccc4c(c3)c(c(-c3cccnc3[C@H](C)OC)n4CC)CC(C)(C)COC(=O)[C@@H]3CCCN(N3)C2=O)C(C)C)[C@@H](C)C1 (atropisomer, axis not shown) [Example A386] | 10 to 100 nM | 100 to 1000 nM | 100 to 1000 nM | 10 to 100 nM | 10 to 100 nM | 10 to 100 nM | 10 to 100 nM
C=CC(=O)N1C[C@@H](C)N(C(=O)N(C)[C@H](C(=O)N[C@H]2Cc3nc(cs3)-c3ccc4c(c3)c(c(-c3cccnc3[C@H](C)OC)n4CC)CC(C)(C)COC(=O)[C@@H]3CCCN(N3)C2=O)C(C)C)[C@@H](C)C1 (atropisomer, axis not shown) [Example A387] | 10 to 100 nM | 100 to 1000 nM | 100 to 1000 nM | 10 to 100 nM | 10 to 100 nM | 10 to 100 nM | 10 to 100 nM
C=CC(=O)N1CC2(CCN(C(=O)N(C)[C@H](C(=O)N[C@H]3Cc4nc(cs4)-c4ccc5c(c4)c(c(-c4cccnc4[C@H](C)OC)n5CC)CC(C)(C)COC(=O)[C@@H]4CCCN(N4)C3=O)C(C)C)CC2)C1 (atropisomer, axis not shown) [Example A394] | < 10 nM | 10 to 100 nM | 100 to 1000 nM | 100 to 1000 nM | 10 to 100 nM | 100 to 1000 nM | 10 to 100 nM
C=CC(=O)N1CCN(C(=O)N(C)[C@H](C(=O)N[C@H]2Cc3nc(cs3)-c3ccc4c(c3)c(c(-c3cccnc3[C@H](C)OC)n4CC)CC(C)(C)COC(=O)[C@@H]3CCCN(N3)C2=O)C(C)C)CC12CC2 (atropisomer, axis not shown) [Example A417] | 10 to 100 nM | 10 to 100 nM | 100 to 1000 nM | 100 to 1000 nM | 10 to 100 nM | 10 to 100 nM | 10 to 100 nM
CCn1c(-c2cccnc2[C@H](C)OC)c2c3cc(ccc31)-c1csc(n1)C[C@H](NC(=O)CCOC1CN(C(=O)C#CC(C)(C)N(C)C)C1)C(=O)N1CCC[C@H](N1)C(=O)OCC(C)(C)C2 (atropisomer, axis not shown) [Example A427, 3-((1-(4-(dimethylamino)-4-methylpent-2-ynoyl)azetidin-3-yl)oxy)-N-((6^3S,4S,Z)-1^1-ethyl-1^2-(2-((S)-1-methoxyethyl)pyridin-3-yl)-10,10-dimethyl-5,7-dioxo-6^1,6^2,6^3,6^4,6^5,6^6-hexahydro-1^1H-8-oxa-2(4,2)-thiazola-1(5,3)-indola-6(1,3)-pyridazinacycloundecaphane-4-yl)propanamide] | < 10 nM | 1000 to 10000 nM | 1000 to 10000 nM | 1000 to 10000 nM | 1000 to 10000 nM | > 10000 nM | 1000 to 10000 nM
C=CC(=O)N1CC[C@H](C(=O)N(C)[C@H](C(=O)N[C@H]2Cc3cccc(c3)-c3ccc4c(c3)c(c(-c3cc5c(nc3[C@H](C)OC)CCN(C)C5)n4CC)CC(C)(C)COC(=O)[C@@H]3CCCN(N3)C2=O)C(C)C)C1 (atropisomer, axis not shown) [Example A461] | < 10 nM | 1000 to 10000 nM | 1000 to 10000 nM | 1000 to 10000 nM | 1000 to 10000 nM | 1000 to 10000 nM | 1000 to 10000 nM
C=CC(=O)N(C)C1CN(C(=O)N(C)[C@H](C(=O)N[C@H]2Cc3nc(cs3)-c3ccc4c(c3)c(c(-c3cccnc3[C@H](C)OC)n4CC)CC(C)(C)COC(=O)[C@@H]3CCCN(N3)C2=O)C(C)C)C1 (atropisomer, axis not shown) [Example A463] | < 10 nM | 100 to 1000 nM | 100 to 1000 nM | 100 to 1000 nM | 10 to 100 nM | 100 to 1000 nM | 10 to 100 nM
C=CC(=O)N1CC[C@H](C(=O)N(C)[C@H](C(=O)N[C@H]2Cc3nc(cs3)-c3ccc4c(c3)c(c(-c3cc5c(nc3[C@H](C)OC)CCN(C)C5)n4CC)CC(C)(C)COC(=O)[C@@H]3CCCN(N3)C2=O)C(C)C)C1 (atropisomer, axis not shown) [Example A472] | < 10 nM | 1000 to 10000 nM | 1000 to 10000 nM | 1000 to 10000 nM | 1000 to 10000 nM | 1000 to 10000 nM | 1000 to 10000 nM
C=CC(=O)N1CC[C@H](C(=O)N(C)[C@H](C(=O)N[C@H]2Cc3cc(C)cc(c3)-c3ccc4c(c3)c(c(-c3cccnc3[C@H](C)OC)n4CC)CC(C)(C)COC(=O)[C@@H]3CCCN(N3)C2=O)C(C)C)C1 (atropisomer, axis not shown) [Example A498] | 10 to 100 nM | 1000 to 10000 nM | 1000 to 10000 nM | 1000 to 10000 nM | 1000 to 10000 nM | 1000 to 10000 nM | 1000 to 10000 nM
C=CC(=O)N1CC[C@H](C(=O)N(C)[C@H](C(=O)N[C@H]2Cc3cccc(c3)-c3ccc4c(c3)c(c(-c3cccnc3[C@H](C)OC)n4CC#CC)CC(C)(C)COC(=O)[C@@H]3CCCN(N3)C2=O)C(C)C)C1 (atropisomer, axis not shown) [Example A531] | 10 to 100 nM | 1000 to 10000 nM | 1000 to 10000 nM | 1000 to 10000 nM | 1000 to 10000 nM | 1000 to 10000 nM | 1000 to 10000 nM
C=CC(=O)N1CCOC2(C1)CN(C(=O)N(C)[C@H](C(=O)N[C@H]1Cc3cccc(c3)-c3ccc4c(c3)c(c(-c3cccnc3[C@H](C)OC)n4CC(F)(F)F)CC(C)(C)COC(=O)[C@@H]3CCCN(N3)C1=O)C(C)C)C2 (atropisomer, axis not shown) [Example A538] | 10 to 100 nM | 10 to 100 nM | 100 to 1000 nM | 100 to 1000 nM | 100 to 1000 nM | 100 to 1000 nM | 100 to 1000 nM
CO[C@@H](C)c1ncccc1-c1c2c3cc(ccc3n1CC(F)(F)F)-c1cccc(c1)C[C@H](NC(=O)[C@H](C(C)C)N(C)C(=O)N1CCC3(CC1)CN(C(=O)/C=C/CN(C)C)C3)C(=O)N1CCC[C@H](N1)C(=O)OCC(C)(C)C2 (atropisomer, axis not shown) [Example A555] | 10 to 100 nM | 10 to 100 nM | 100 to 1000 nM | 100 to 1000 nM | 100 to 1000 nM | 100 to 1000 nM | 100 to 1000 nM
CCn1c(-c2cccnc2[C@H](C)OC)c2c3cc(ccc31)-c1cccc(c1)C[C@H](NC(=O)[C@H](C(C)C)N1CC[C@@]3(CCN(C(=O)C#C[C@H]4COCCN4C4COC4)C3)C1=O)C(=O)N1CCC[C@H](N1)C(=O)OCC(C)(C)C2 (atropisomer, axis not shown) [Example A567] | < 10 nM | 100 to 1000 nM | 1000 to 10000 nM | 1000 to 10000 nM | 100 to 1000 nM | 1000 to 10000 nM | 1000 to 10000 nM
C=CC(=O)N1CCO[C@H]2CN(C(=O)N(C)[C@H](C(=O)N[C@H]3Cc4coc(n4)-c4ccc5c(c4)c(c(-c4cccnc4[C@H](C)OC)n5CC(F)(F)F)CC(C)(C)COC(=O)[C@@H]4CCCN(N4)C3=O)C(C)C)C[C@H]21 (atropisomer, axis not shown) [Example A574] | 10 to 100 nM | 10 to 100 nM | 1000 to 10000 nM | 1000 to 10000 nM | 100 to 1000 nM | 1000 to 10000 nM | 100 to 1000 nM
C=CC(=O)N1C[C@@H](N(C)C(=O)N(C)[C@H](C(=O)N[C@H]2Cc3nc(cs3)-c3ccc4c(c3)c(c(-c3cccnc3[C@H](C)OC)n4CC)CC(C)(C)COC(=O)[C@@H]3CCCN(N3)C2=O)C(C)C)[C@@H](C)C1 (atropisomer, axis not shown) [Example A583] | 10 to 100 nM | 100 to 1000 nM | 100 to 1000 nM | 100 to 1000 nM | 100 to 1000 nM | 100 to 1000 nM | 100 to 1000 nM
C=CC(=O)N1C[C@H](C)N(C(=O)N(C)[C@H](C(=O)N[C@H]2Cc3nc(cs3)-c3ccc4c(c3)c(c(-c3cccnc3[C@H](C)OC)n4CC)CC(C)(C)COC(=O)[C@@H]3CCCN(N3)C2=O)C(C)C)CC12CC2 (atropisomer, axis not shown) [Example A586] | 10 to 100 nM | 100 to 1000 nM | 100 to 1000 nM | 100 to 1000 nM | 10 to 100 nM | 100 to 1000 nM | 100 to 1000 nM
C=CC(=O)N1C[C@@H](C)[C@H](N(C)C(=O)N(C)[C@H](C(=O)N[C@H]2Cc3nc(cs3)-c3ccc4c(c3)c(c(-c3cccnc3[C@H](C)OC)n4CC)CC(C)(C)COC(=O)[C@@H]3CCCN(N3)C2=O)C(C)C)C1 (atropisomer, axis not shown) [Example A588] | 10 to 100 nM | 1000 to 10000 nM | 1000 to 10000 nM | 1000 to 10000 nM | 100 to 1000 nM | 1000 to 10000 nM | 100 to 1000 nM
